From US6683103B2, “Sulfonamides for treatment of endothelin-mediated disorders” (Texas Biotechnology Corporation, priority 1997, dated 2004)
Read-outs that look alike come from different tables or passages of the source.

Tests used:
human ETA receptors = biological target: T1, human ETA receptors (Homo sapiens, UniProt P25101); test: Binding Test #1: inhibition of 125I-ET-1 binding to ETA receptors (TE 671 cell membranes); settings: read-out: ETA
T1 construct: endogenous in cells; host or cells: TE 671 cells (ATCC HTB 139)
T1 sequence (P25101 21-427): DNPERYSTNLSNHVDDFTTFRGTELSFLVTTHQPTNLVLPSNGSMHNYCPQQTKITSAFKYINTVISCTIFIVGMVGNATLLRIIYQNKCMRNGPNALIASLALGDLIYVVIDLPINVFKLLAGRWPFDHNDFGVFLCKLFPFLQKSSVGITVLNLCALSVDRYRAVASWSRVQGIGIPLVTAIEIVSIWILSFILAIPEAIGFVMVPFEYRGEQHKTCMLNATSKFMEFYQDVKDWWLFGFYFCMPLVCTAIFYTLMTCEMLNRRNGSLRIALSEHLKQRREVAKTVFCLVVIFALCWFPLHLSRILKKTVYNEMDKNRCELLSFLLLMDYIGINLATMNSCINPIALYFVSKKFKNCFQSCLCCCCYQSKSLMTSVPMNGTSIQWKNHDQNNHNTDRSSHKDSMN
Method in brief: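 Membranes from TE 671 cells (up to 8 μg protein) incubated with ¹²⁵I-ET-1 and compound (1 nM–100 μM final) in 30 mM HEPES pH 7.4, 150 mM NaCl, 5 mM MgCl2, 0.5% bacitracin, 16–18 h at 4 °C or alternatively at 24 °C. Nonspecific binding with 80 nM ET-1; bound pellet gamma-counted, % inhibition calculated, usually triplicate.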

human ETB receptor = biological target: T2, human ETB receptor (Homo sapiens, UniProt P24530); test: Binding Test #2: inhibition of 125I-ET-1 binding to ETB receptors (transfected COS7 cell membranes); settings: read-out: ETB
T2 construct: expressed in transfected cells; host or cells: COS7 cells
T2 sequence (P24530 27-442): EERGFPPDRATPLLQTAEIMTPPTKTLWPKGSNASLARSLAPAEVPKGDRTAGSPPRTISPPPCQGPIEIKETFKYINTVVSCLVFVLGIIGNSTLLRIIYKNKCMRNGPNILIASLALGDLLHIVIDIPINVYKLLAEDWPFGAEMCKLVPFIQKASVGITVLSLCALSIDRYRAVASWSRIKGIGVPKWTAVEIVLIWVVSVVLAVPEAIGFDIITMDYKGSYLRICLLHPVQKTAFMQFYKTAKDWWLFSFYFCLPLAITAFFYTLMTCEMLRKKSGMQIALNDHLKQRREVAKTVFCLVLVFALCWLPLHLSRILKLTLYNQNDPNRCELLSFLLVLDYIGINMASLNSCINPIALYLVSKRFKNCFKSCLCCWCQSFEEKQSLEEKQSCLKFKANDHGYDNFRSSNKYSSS
Method in brief: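 Competition with 125I-ET-1 for binding to membranes from COS7 cells transfected with human ETB receptor, used at 1 μg/50 μl binding buffer. Membranes prepared in HEPES pH 7.4 with aprotinin, including a DNase/MnCl2 step at 37 °C for 30 min.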

[1] = Table 1, † incubation at 24° C.
[2] = Table 2, † incubation at 24° C.

IC50 (human ETA receptors; Table 1, incubation at 4° C.) [µM] | IC50 (human ETB receptor; Table 1, incubation at 4° C.) [µM] | IC50 (human ETA receptors; [1]) [µM] | IC50 (human ETB receptor; [1]) [µM] | SMILES | other results
0.224 | 1.17 |  |  | Cc1noc(NS(=O)(=O)c2cc(-c3ccccc3)cs2)c1Br [N-(4-bromo-3-methyl-5-isoxazolyl)-4-phenylthiophene-2-sulfonamide] | 
 |  | 14 | 1.4 | Cc1noc(NS(=O)(=O)c2ccc(-c3cccc4ccccc34)s2)c1Br [N-(4-bromo-3-methyl-5-isoxazolyl)-5-(1-naphthyl)thiophene-2-sulfonamide] | 
 |  | 29 | 5.6 | CCCC#Cc1ccc(S(=O)(=O)Nc2onc(C)c2Br)s1 [N-(4-bromo-3-methyl-5-isoxazolyl)-5-(1-pentynyl)thiophene-2-sulfonamide] | 
0.381 | 1.1 |  |  | COc1ccccc1-c1ccc(S(=O)(=O)Nc2onc(C)c2Br)s1 [N-(4-bromo-3-methyl-5-isoxazolyl)-5-(2-methoxyphenyl)thiophene-2-sulfonamide] | 
 |  | 32 | 7.5 | Cc1ccc(-c2ccc(S(=O)(=O)Nc3onc(C)c3Br)s2)o1 [N-(4-bromo-3-methyl-5-isoxazolyl)-5-(2-methyfuranyl)thiophene-2-sulfonamide] | 
0.432 | 0.313 |  |  | Cc1ccccc1-c1ccc(S(=O)(=O)Nc2onc(C)c2Br)s1 [N-(4-bromo-3-methyl-5-isoxazolyl)-5-(2-tolyl)thiophene-2-sulfonamide] | 
5.1 | 0.363 |  |  | Cc1noc(NS(=O)(=O)c2ccc(-c3cccs3)s2)c1Br [N-(4-bromo-3-methyl-5-isoxazolyl)-5-(2′-thienyl)thiophene-2-sulfonamide] | 
1.12 | 24 | 7.24 | 35.5 | Cc1noc(NS(=O)(=O)c2ccc(C#CC(C)(C)C)s2)c1Br [N-(4-bromo-3-methyl-5-isoxazolyl)-5-(3,3-dimethylbutyn-1-yl)thiophene-2-sulfonamide] | 
0.537 | 1.07 | 1.44 | 2.63 | Cc1noc(NS(=O)(=O)c2ccc(-c3cccc(N)c3)s2)c1Br [N-(4-bromo-3-methyl-5-isoxazolyl)-5-(3-aminophenyl)thiophene-2-sulfonamide] | 
3.26 | 0.776 | 23.4 | 4.7 | COc1cccc(-c2ccc(S(=O)(=O)Nc3onc(C)c3Br)s2)c1 [N-(4-bromo-3-methyl-5-isoxazolyl)-5-(3-methoxyphenyl)thiophene-2-sulfonamide] | 
 |  | 26 | 4.5 | Cc1noc(NS(=O)(=O)c2ccc(-c3cccc([N+](=O)[O-])c3)s2)c1Br [N-(4-bromo-3-methyl-5-isoxazolyl)-5-(3-nitrophenyl)thiophene-2-sulfonamide] | 
4.49 | 0.38 |  |  | Cc1noc(NS(=O)(=O)c2ccc(-c3ccsc3)s2)c1Br [N-(4-bromo-3-methyl-5-isoxazolyl)-5-(3-thienyl)thiophene-2-sulfonamide] | 
 |  | 15 | 4.2 | Cc1cccc(-c2ccc(S(=O)(=O)Nc3onc(C)c3Br)s2)c1 [N-(4-bromo-3-methyl-5-isoxazolyl)-5-(3-tolyl)thiophene-2-sulfonamide] | 
 |  | > 100 | 31 | Cc1noc(NS(=O)(=O)c2ccc(-c3ccc(C(=O)O)cc3)s2)c1Br [N-(4-bromo-3-methyl-5-isoxazolyl)-5-(4-carboxyphenyl)thiophene-2-sulfonamide] | 
3.23 | 0.0855 |  |  | CCc1ccc(-c2ccc(S(=O)(=O)Nc3onc(C)c3Br)s2)cc1 [N-(4-bromo-3-methyl-5-isoxazolyl)-5-(4-ethylphenyl)thiophene-2-sulfonamide] | 
8.69 | 0.363 | 26.3 | 2.4 | COc1ccc(-c2ccc(S(=O)(=O)Nc3onc(C)c3Br)s2)cc1 [N-(4-bromo-3-methyl-5-isoxazolyl)-5-(4-methoxyphenyl)thiophene-2-sulfonamide] | 
 |  | > 100 | 17 | COC(=O)c1ccc(-c2ccc(S(=O)(=O)Nc3onc(C)c3Br)s2)cc1 [N-(4-bromo-3-methyl-5-isoxazolyl)-5-(4-methyoxycarbonylphenyl)thiophene-2-sulfonamide] | 

IC50 (human ETA receptors; Table 1, incubation at 4° C.) [µM] | IC50 (human ETB receptor; Table 1, incubation at 4° C.) [µM] | IC50 (human ETA receptors; [1]) [µM] | IC50 (human ETB receptor; [1]) [µM] | SMILES | other results
 |  | 28 | 8.6 | Cc1ccc(NC(=O)c2ccc(S(=O)(=O)Nc3onc(C)c3Br)s2)cc1 [N-(4-bromo-3-methyl-5-isoxazolyl)-5-(4-tolyl)aminocarbonyl)thiophene-2-sulfonamide] | 
1.6 | 0.3 |  |  | Cc1noc(NS(=O)(=O)c2ccc(-c3ccc(C(C)C)cc3)s2)c1Br [N-(4-bromo-3-methyl-5-isoxazolyl)-5-(4′-isopropylphenyl))thiophene-2-sulfonamide] | 
5.6 | 0.51 |  |  | CCCc1ccc(-c2ccc(S(=O)(=O)Nc3onc(C)c3Br)s2)cc1 [N-(4-bromo-3-methyl-5-isoxazolyl)-5-(4′-propylphenyl))thiophene-2-sulfonamide] | 
 |  | 24 | 7.7 | CCc1ccc(-c2ccc(S(=O)(=O)Nc3onc(C)c3Br)s2)s1 [N-(4-bromo-3-methyl-5-isoxazolyl)-5-(5-ethylthien-2-yl)thiophene-2-sulfonamide] | 
5 | 7 |  |  | Cc1noc(NS(=O)(=O)c2ccc(Sc3ccccc3)o2)c1Br [N-(4-bromo-3-methyl-5-isoxazolyl)-5-(phenthio)furan-2-sulfonamide] | 
0.794 | 12 | 5.9 | 15.5 | Cc1noc(NS(=O)(=O)c2ccc(-c3cc(C(F)(F)F)cc(C(F)(F)F)c3)s2)c1Br [N-(4-bromo-3-methyl-5-isoxazolyl)-5-[3,5-bis(triflouromethyl)phenyl]thiophene-2-sulfonamide] | 
6.39 | 0.0835 | 6.31 | 0.282 | Cc1noc(NS(=O)(=O)c2ccc(-c3ccc(C(F)(F)F)cc3)s2)c1Br [N-(4-bromo-3-methyl-5-isoxazolyl)-5-[4-(trifluoromethyl)phenyl]thiophene-2-sulfonamide] | 
0.314 | 2.26 |  |  | Cc1noc(NS(=O)(=O)c2ccc(Br)s2)c1Br [N-(4-bromo-3-methyl-5-isoxazolyl)-5-bromothiophene-2-sulfonamide] | 
0.857 | 2.43 |  |  | Cc1noc(NS(=O)(=O)c2ccc(-c3ccccc3)o2)c1Br [N-(4-bromo-3-methyl-5-isoxazolyl)-5-phenylfuran-2-sulfonamide] | 
3.53 | 0.417 | 36.6 | 2.4 | Cc1noc(NS(=O)(=O)c2ccc(-c3ccccc3)s2)c1Br [N-(4-bromo-3-methyl-5-isoxazolyl)-5-phenylthiophene-2-sulfonamide] | 
0.75 | 88.1 |  |  | Cc1noc(NS(=O)(=O)c2ccco2)c1Br [N-(4-bromo-3-methyl-5-isoxazolyl)furan-2-sulfonamide] | 
0.135 | 23.4 |  |  | Cc1noc(NS(=O)(=O)c2ccsc2)c1Br [N-(4-bromo-3-methyl-5-isoxazolyl)thiophene-3-sulfonamide] | 
 |  |  |  | Cc1onc(NS(=O)(=O)c2ccc(-c3ccccc3)cc2)c1Br [N-(4-bromo-5-methyl-3-isoxazolyl)-4-biphenylsulfonamide] | IC50 (human ETA receptors; Table 2, incubation at 4° C.): 6.4 ± 2 µM; IC50 (human ETA receptors; [2]): 49 µM; IC50 (human ETB receptor; Table 2, incubation at 4° C.): 0.29 ± 0.02 µM; IC50 (human ETB receptor; [2]): 1.78 µM
0.211 | 27.3 |  |  | Cc1onc(NS(=O)(=O)c2cccs2)c1Br [N-(4-bromo-5-methyl-3-isoxazolyl)thiophene-2-sulfonamide] | 
 |  | 0.000626 | 8.27 | Cc1cc(C)c(NC(=O)c2sccc2S(=O)(=O)Nc2onc(C)c2Cl)c(C)c1 [N-(4-chloro-3-methyl-5-isoxazolyl)-2-(2,4,6-trimethylphenylaminocarbonyl)thiophene-3-sulfonamide] | 
 |  | 0.0004 | 4.8 | Cc1ccc(CC(=O)c2sccc2S(=O)(=O)Nc2onc(C)c2Cl)c(C)c1 [N-(4-chloro-3-methyl-5-isoxazolyl)-2-(2,4-dimethylphenylacetyl)thiophene-3-sulfonamide] | 
